Results: PubChem BioAssay (NCI)
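Where inhibition never reached the appropriate level, the endpoint shown equals the highest concentration tested. Otherwise, values were interpolated linearly from a five-concentration, 48-hour dose response in 96-well plates. GI50: concentration for 50% inhibition of growth. TGI denotes the concentration required for complete inhibition of growth.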

Legend:
Test in all cases: DTP human tumour cell line panel, 48 h
SK-MEL-2 melanoma = tested on: SK-MEL-2 melanoma
HOP-18 NSCLC = tested on: HOP-18 NSCLC
LXFL 529 NSCLC = tested on: LXFL 529 NSCLC
DMS 273 small cell lung = tested on: DMS 273 small cell lung
DMS 114 small cell lung = tested on: DMS 114 small cell lung
DLD-1 colon = tested on: DLD-1 colon
XF 498 CNS = tested on: XF 498 CNS
KM20L2 colon = tested on: KM20L2 colon
SNB-78 CNS = tested on: SNB-78 CNS
M19-MEL melanoma = tested on: M19-MEL melanoma

For `O=C1CCCc2cc3c(cc21)CCC3C(=O)O` (stereo not given), which TGI (SK-MEL-2 melanoma) is on record?
The TGI was over 100 µM.

With `CC1OC(O[C@H]2CC[C@]3(C)[C@H]4CC=C5[C@@H]6[C@@H](C)[C@H](C)CC[C@]6(C(=O)O)CC[C@@]5(C(=O)O)[C@]4(C)CC[C@H]3C2(C)C)C(O)C(O)C1O` (stereo not given in full) as the compound, how does the TGI (SK-MEL-2 melanoma) read?
The TGI was over 75 µM.

For `CNC(=O)CCNC(=O)CCC(=O)OC`, which TGI (SK-MEL-2 melanoma) is on record?
Its TGI is over 100 µM.

With `CCOC(=O)CCC(NC(=O)c1ccc(Nc2nc3cc(C(F)(F)F)ccc3nc2-c2ccccc2)cc1)C(=O)OCC` (stereo not given) as the compound, how does the TGI (SK-MEL-2 melanoma) read?
The TGI was over 100 µM.

How did the TGI (SK-MEL-2 melanoma) turn out when `CC1(C)OCC(C2OC(N3O[C@H](CI)C[C@@H]3c3ccccc3)C3OC(C)(C)OC23)O1` (stereo not given in full) was run?
The TGI was over 100 µM.

How did the TGI (SK-MEL-2 melanoma) turn out when `Cc1cc2c(s1)C(=O)c1sccc1C2=O` was run?
Its TGI is 1.33 µM.

What about the TGI (HOP-18 NSCLC) of the same compound?
Its TGI is 2.81 µM.

And the TGI (LXFL 529 NSCLC)?
Its TGI is 2.5 µM.

What about the TGI (DMS 273 small cell lung) of the same compound?
The TGI was 2.62 µM.

What about the TGI (DMS 114 small cell lung) of the same compound?
Its TGI is 0.6 µM.

And the TGI (DLD-1 colon)?
Its TGI is 3.36 µM.

What about the TGI (XF 498 CNS) of the same compound?
Its TGI is 2.92 µM.

What about the TGI (KM20L2 colon) of the same compound?
Its TGI is 4.75 µM.

Which TGI (SNB-78 CNS) does the source give for `COc1ccc2c3ccc4c(c3n(C)c2c1)C(=O)c1ccccc1C4=O` here?
Its TGI is over 100 µM.

What about the TGI (HOP-18 NSCLC) of the same compound?
The TGI was over 100 µM.

And the TGI (LXFL 529 NSCLC)?
Its TGI is over 100 µM.

And the TGI (DMS 273 small cell lung)?
The TGI was over 100 µM.

What about the TGI (DMS 114 small cell lung) of the same compound?
The TGI was over 100 µM.

What about the TGI (DLD-1 colon) of the same compound?
Its TGI is over 100 µM.

What about the TGI (M19-MEL melanoma) of the same compound?
Its TGI is over 100 µM.

And the TGI (KM20L2 colon)?
Its TGI is over 100 µM.

With `Cc1cc2oc(=O)[nH]c(=S)c2c(C)c1C` as the compound, how does the TGI (SK-MEL-2 melanoma) read?
The TGI was over 100 µM.

And the TGI (HOP-18 NSCLC)?
Its TGI is over 100 µM.

And the TGI (LXFL 529 NSCLC)?
The TGI was over 100 µM.

And the TGI (DMS 273 small cell lung)?
The TGI was over 100 µM.

And the TGI (DMS 114 small cell lung)?
Its TGI is over 100 µM.

What about the TGI (M19-MEL melanoma) of the same compound?
The TGI was over 100 µM.

What about the TGI (XF 498 CNS) of the same compound?
The TGI was over 100 µM.

What about the TGI (KM20L2 colon) of the same compound?
The TGI was over 100 µM.

For `COC(=O)[C@H](Cc1ccccc1)NC(=O)N1CCN(C(=O)N[C@@H](Cc2ccccc2)C(=O)OC)CCN(C(=O)N[C@@H](Cc2ccccc2)C(=O)OC)CC1`, which TGI (SK-MEL-2 melanoma) is on record?
Its TGI is over 100 µM.

How did the TGI (SK-MEL-2 melanoma) turn out when `C/C=C(/C)C(=O)O[C@H]1C(C)=C[C@]23C(=O)[C@@H](C=C(COC(C)=O)[C@@H](O)[C@]12O)[C@H]1[C@@H](C[C@H]3C)[C@@]1(C)OC(=O)/C(C)=C\C` was run?
Its TGI is 6.01 µM.

How did the TGI (SNB-78 CNS) turn out when `[N-]=[N+]=NC1C(Br)C(=O)NC(=O)N1[C@H]1C[C@H](O)[C@@H](CO)O1` (stereo not given in full) was run?
Its TGI is over 100 µM.

What about the TGI (SK-MEL-2 melanoma) of the same compound?
Its TGI is over 100 µM.

And the TGI (LXFL 529 NSCLC)?
The TGI was over 100 µM.

What about the TGI (DMS 273 small cell lung) of the same compound?
The TGI was over 100 µM.

And the GI50 (DMS 114 small cell lung)?
The GI50 was 90.9 µM.

And the TGI (DMS 114 small cell lung)?
Its TGI is over 100 µM.

And the TGI (DLD-1 colon)?
Its TGI is over 100 µM.

And the GI50 (M19-MEL melanoma)?
Its GI50 is 91.5 µM.

What about the TGI (M19-MEL melanoma) of the same compound?
Its TGI is over 100 µM.

What about the TGI (XF 498 CNS) of the same compound?
The TGI was over 100 µM.

And the TGI (KM20L2 colon)?
Its TGI is over 100 µM.

How did the TGI (SK-MEL-2 melanoma) turn out when `COC12C=CC(CC1)C1C(=O)c3c(C)c(C)n(C)c3C(=O)C12` (stereo not given) was run?
Its TGI is over 100 µM.

How did the TGI (SK-MEL-2 melanoma) turn out when `C=C[C@H]1CN2CCc3c([nH]c4c([C@H]5CCCN5C)c(O)ccc34)[C@@H]2C[C@@H]1C[C@H]1c2[nH]c3ccccc3c2CCN1C` was run?
Its TGI is 3.53 µM.

`C=C1C(=O)C23CC1C[C@H](OC(C)=O)C2C1(C)C(OC(C)=O)C[C@H](O)C(C)(C)[C@H]1C(O)[C@@H]3OC(C)=O` (stereo not given in full) was tested. Which TGI (SK-MEL-2 melanoma) did it give?
The TGI was 29.7 µM.

With `CC(C)(C)N1NC1C1NN1C(C)(C)C` (stereo not given) as the compound, how does the TGI (SK-MEL-2 melanoma) read?
Its TGI is over 100 µM.

With `C[Si](C)(C)OC1c2[nH]c3ccccc3c2CN2C(=O)CCC12` (stereo not given) as the compound, how does the TGI (SK-MEL-2 melanoma) read?
The TGI was over 100 µM.

For `Cc1ccccc1N(C)S(=O)(=O)c1ccccc1[N+](=O)[O-]`, which TGI (SK-MEL-2 melanoma) is on record?
Its TGI is over 100 µM.

For `O=C1CCC2SC1CCC2=O`, which TGI (SK-MEL-2 melanoma) is on record?
The TGI was over 100 µM.

With `[N-]=[N+]=Nc1ccc2c(c1)Sc1ccccc1N2CCCCCl` as the compound, how does the TGI (SK-MEL-2 melanoma) read?
The TGI was 76.9 µM.
